US8962671B2, “Amino-substituted 3-heteroaroylamino-propionic acid derivatives and their use as pharmaceuticals” (Sanofi, priority 2011, dated 2015)

Experiments:
[1] = tested on: platelet aggregation; settings: hypertensive animals; H. Ostrowska et al., J. Cardiovasc. Pharmacol. 45 (2005); cited from earlier work
[2] = target: T1, Recombinant human cathepsin A (Homo sapiens, UniProt P10619); experiment: Cathepsin A inhibitory activity; format: biochemical; settings: activated recombinant human cathepsin A 833 ng/ml, Bodipy FL-labeled bradykinin 2 μM, pH 5.5, 15 min room temperature
T1 construct: Recombinant human cathepsin A (residues 29-480, with a C-terminal 10-His tag); 10-His (C); purchased R&D Systems 1049-SE
T1 sequence (P10619 29-326 limits assumed): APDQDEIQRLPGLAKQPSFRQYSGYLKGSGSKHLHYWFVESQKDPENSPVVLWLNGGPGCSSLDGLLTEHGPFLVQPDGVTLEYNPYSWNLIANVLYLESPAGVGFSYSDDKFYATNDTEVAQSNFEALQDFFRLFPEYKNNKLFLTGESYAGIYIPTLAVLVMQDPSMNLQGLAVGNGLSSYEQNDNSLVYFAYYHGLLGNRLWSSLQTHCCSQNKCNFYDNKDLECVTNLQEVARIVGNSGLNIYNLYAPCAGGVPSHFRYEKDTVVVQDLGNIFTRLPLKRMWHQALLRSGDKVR
T1 sequence (P10619 327-480 limits assumed): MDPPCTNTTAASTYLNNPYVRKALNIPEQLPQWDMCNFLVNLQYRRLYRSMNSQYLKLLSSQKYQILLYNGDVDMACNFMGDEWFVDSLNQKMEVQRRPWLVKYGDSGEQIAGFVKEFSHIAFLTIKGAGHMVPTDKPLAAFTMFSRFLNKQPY
Method: a) Cathepsin a Inhibitory Activity
Recombinant human cathepsin A (residues 29-480, with a C-terminal 10-His tag; R&D Systems, #1049-SE) was proteolytically activated with recombinant human cathepsin L (R&D Systems, #952-CY). Briefly, cathepsin A was incubated at 10 μg/ml with cathepsin L at 1 μg/ml in activation buffer (25 mM 2-(morpholin-4-yl)-ethanesulfonic acid (MES), pH 6.0, containing 5 mM dithiothreitol (DTT)) for 15 min at 37° C. Cathepsin L activity was then stopped by the addition of the cysteine protease inhibitor E-64 (N-(trans-epoxysuccinyl)-L-leucine-4-guanidinobutylamide; Sigma-Aldrich, #E3132; dissolved in activation buffer/DMSO) to a final concentration of 10 μM.
The activated cathepsin A was diluted in assay buffer (25 mM MES, pH 5.5, containing 5 mM DTT) and mixed with the test compound (dissolved in assay buffer containing (v/v) 3% DMSO) or, in the control experiments, with the vehicle in a multiple assay plate. After incubation for 15 min at room temperature, as substrate then bradykinin carrying an N-Terminal®Bodipy FL (4,4-difluoro-5,7-dimethyl-4-bora-3a,4a-diaza-s-indacene-3-propionyl) label (JPT Peptide Technologies GmbH; dissolved in assay buffer) was added to the mixture. The final concentration of cathepsin A was 833 ng/ml and the final concentration of labeled bradykinin 2 μM. After incubation for 15 min at room temperature the reaction was stopped by the addition of stop buffer (130 mM 2-(4-(2-hydroxy-ethyl)-piperazin-1-yl)-ethanesulfonic acid, pH 7.4, containing (v/v) 0.013%®Triton X-100, 0.13% Coating Reagent 3 (Caliper Life Sciences), 6.5% DMSO and 20 μM ebelactone B (Sigma, #E0886)).
Uncleaved substrate and product were then separated by a microfluidic capillary electrophoresis on a LabChip® 3000 Drug Discovery System (12-Sipper-Chip; Caliper Life Sciences) and quantified by determination of the respective peak areas. Substrate turnover was calculated by dividing product peak area by the sum of substrate and product peak areas, and the enzyme activity and the inhibitory effect of the test compound thus quantified. From the percentage of inhibition of cathepsin A activity observed with the test compound at several concentrations, the inhibitory concentration IC50, i.e. the concentration which effects 50% inhibition of enzyme activity was, calculated.

Row | IC50 [2] [nM] | SMILES | platelet aggregation [1]
1 |  | CC[C@@H](C)[C@@H](O)[C@H](C)C(=O)[C@H](C)/C=C(\C)C[C@H](C)[C@@H]1OC(=O)[C@H]1CC [ebelactone B] | suppresses platelet aggregation
2 | 108 | Cc1ccc([C@H](CC(=O)O)NC(=O)c2cc(NC(=O)c3ccccc3)n(-c3ccccc3)n2)c(C)c1 [Example 79, (S)-3-[(5-Benzoylamino-1-phenyl-1H-pyrazole-3-carbonyl)-amino]-3-(2,4-dimethyl-phenyl)-propionic acid] | 
3 | 370 | O=C(O)CC(Cc1ccccc1)NC(=O)c1cc(NC(=O)c2ccccc2)n(-c2ccccc2)n1 (stereo not shown) [Example 75, 3-[(5-Benzoylamino-1-phenyl-1H-pyrazole-3-carbonyl)-amino]-4-phenyl-butyric acid] | 
4 | 73.4 | O=C(O)CC1(NC(=O)c2cc(NC(=O)c3ccccc3)n(-c3ccccc3)n2)CCCC1 [Example 77, {1-[(5-Benzoylamino-1-phenyl-1H-pyrazole-3-carbonyl)-amino]-cyclopentyl}-acetic acid] | 
5 | 13.6 | Cc1ccccc1[C@H](CC(=O)O)NC(=O)c1cc(N2CCCS2(=O)=O)n(-c2ccccc2F)n1 [Example 12, (S)-3-{[5-(1,1-Dioxo-1lambda6-isothiazolidin-2-yl)-1-(2-fluoro-phenyl)-1H-pyrazole-3-carbonyl]-amino}-3-o-tolyl-propionic acid] | 
6 | 1110 | O=C(O)CC(NC(=O)c1cc2[nH]c3ccccc3n2n1)c1cccc2c1OCO2 (stereo not shown) [Example 22, 3-Benzo[1,3]dioxol-4-yl-3-[(4H-benzo[4,5]imidazo[1,2-b]pyrazole-2-carbonyl)-amino]-propionic acid] | 
7 | 78.6 | O=C(O)CC(NC(=O)c1cc(NC(=O)c2ccccc2)n(-c2ccccc2)n1)C1CCCCC1 (stereo not shown) [Example 74, 3-[(5-Benzoylamino-1-phenyl-1H-pyrazole-3-carbonyl)-amino]-3-cyclohexyl-propionic acid] | 
8 | 24.9 | Cc1ccccc1[C@H](CC(=O)O)NC(=O)c1cc(NC[C@H](O)C(C)(C)C)n(-c2ccccc2)n1 (single isomer, unassigned) [Example 59] | 
9 | 125 | Cc1ccccc1[C@H](CC(=O)O)NC(=O)c1cc(NC(=O)C(c2ccccc2)c2ccccc2)n(-c2ccccc2)n1 [Example 69, (S)-3-[(5-Diphenylacetylamino-1-phenyl-1H-pyrazole-3-carbonyl)-amino]-3-o-tolyl-propionic acid] | 
10 | 25.8 | Cc1ccccc1[C@H](CC(=O)O)NC(=O)c1cc(N2CCCC2=O)n(-c2ccccc2F)n1 [Example 14, (S)-3-{[1-(2-Fluoro-phenyl)-5-(2-oxo-pyrrolidin-1-yl)-1H-pyrazole-3-carbonyl]-amino}-3-o-tolyl-propionic acid] | 
11 | 23.2 | Nc1cc(C(=O)N[C@@H](CC(=O)O)c2cccc(Cl)c2Cl)nn1-c1ccccc1F [Example 8, (S)-3-{[5-Amino-1-(2-fluoro-phenyl)-1H-pyrazole-3-carbonyl]-amino}-3-(2,3-dichloro-phenyl)-propionic acid] | 
12 | 1780 | Cc1ccccc1[C@H](CC(=O)O)NC(=O)c1cc(NC(=O)CO[C@@H]2C[C@H](C)CC[C@H]2C(C)C)n(-c2ccccc2)n1 [Example 68, (S)-3-({5-[2-((1R,2S,5R)-2-Isopropyl-5-methyl-cyclohexyloxy)-acetylamino]-1-phenyl-1H-pyrazole-3-carbonyl}-amino)-3-o-tolyl-propionic acid] | 
13 | 14 | Cc1ccccc1[C@H](CC(=O)O)NC(=O)c1cc(NC(=O)Nc2ccccc2)n(-c2ccccc2)n1 [Example 10, (S)-3-{[1-Phenyl-5-(3-phenyl-ureido)-1H-pyrazole-3-carbonyl]-amino}-3-o-tolyl-propionic acid] | 
14 | 524 | Cc1ccccc1[C@H](CC(=O)O)NC(=O)c1cc(N(CC2CC2)CC2CC2)n(-c2ccccc2)n1 [Example 51, (S)-3-{[5-(Bis-cyclopropylmethyl-amino)-1-phenyl-1H-pyrazole-3-carbonyl]-amino}-3-o-tolyl-propionic acid] | 
15 | 16.1 | Cc1ccccc1[C@H](CC(=O)O)NC(=O)c1cc(NCC(=O)C(C)(C)C)n(-c2ccccc2)n1 [Example 56, (S)-3-{[5-(3,3-Dimethyl-2-oxo-butylamino)-1-phenyl-1H-pyrazole-3-carbonyl]-amino}-3-o-tolyl-propionic acid] | 
16 | 80.2 | CCNc1cc(C(=O)N[C@@H](CC(=O)O)c2ccccc2C)nn1-c1ccccc1 [Example 85, (S)-3-[(5-Ethylamino-1-phenyl-1H-pyrazole-3-carbonyl)-amino]-3-o-tolyl-propionic acid] | 
